Results published in patent EP3974434B1, “MACROLIDE DERIVATIVES, PREPARATION METHOD AND APPLICATION THEREOF” (Zhejiang Hisun Pharmaceutical Co., Ltd., priority 2019, dated 2020).
Read-outs that look alike come from different tables or passages of the source.

Key:
ROS1(G2032R) = biological target: T1, ROS1(G2032R) (Homo sapiens, UniProt P08922, G2032R); experiment: HTRF KinEASE-TK kinase activity inhibition assay, ROS1(G2032R); format: biochemical; conditions: ATP 0.5 µM
T1 construct: purchased SignalChem R14-12BG-10
Text: The following method was used to determine the inhibition degrees of the compounds of the present invention on the activity of recombinant human ROS1 kinase in vitro. In this method, HTRF®KinEASE-TK tyrosine kinase kit (article No. 62TK0PEB) of Cisbio company was used, the principle of the kit was based on time-resolved fluorescence resonance energy transfer (TF-FRET), and the inhibition of the compounds on the activity of the ROS1 kinase was reflected by determining a phosphorylation degree of a biotinylated polypeptide substrate mediated by ROS1 kinase. For detailed experimental operation, please refer to the kit instruction. […]
The experimental flow was briefly described as follows: a test compound was first dissolved in DMSO to prepare a storage solution, and then diluted in gradient with a buffer provided in the kit. […] An ATP Km value concentration of each ROS1 protein was determined by using an ATP solution diluted in gradient (Sangon Biotech (Shanghai) Co., Ltd., A600311). […] After incubation, fluorescence intensity values of each well at an excitation wavelength of 304 nm, and emission wavelengths of 620 nm and 665 nM were determined in a TF-FRET mode on a microplate reader, and the fluorescence intensity ratio 665/620 of each hole was calculated. […]

[1] = Pharmacokinetic study on ICR mice (plasma, LC-MS/MS); format: in vivo; conditions: male, mouse; for bioavailability: 5 mg/kg oral intake vs 1 mg/kg injection, read-out: Bioavailability F(%); for AUC(0-inf): read-out: Area under curve AUC0-∞; for Cmax: read-out: Blood concentration Cmax; for half-life: read-out: Half-life T1/2(h) (converted); for clearance: read-out: Clearance rate
Protocol: ICR mice, male, 29.0 g to 33.8g, purchased from Beijing Charles River Laboratory Animal Technology Co., Ltd.
Intravenous injection group: an appropriate amount of drug was weighed, and added with mixed solvent (DMA: 30% Solutol HS-15: Saline = 10: 10: 80 (v/v/v)) to prepare the drug with a final concentration of 0.2 mg/mL.
Oral gavage administration group: an appropriate amount of drug was weighed, added with an appropriate amount of sodium carboxymethyl cellulose (CMC-Na, containing 0.5% Tween 80), vortex shaked, and ultrasonically prepared into […] suspension.
For ICR mice, each compound to be tested was divided into an intravenous injection group (9 mice in each group) and an intragastric group (9 mice in each group). The ICR mice were fasted overnight and then administered by orbital intravenous injection (administration dose of 1 mg/kg, and administration volume of 5 mL/kg) and administered by intragastric injection (administration dose of 5 mg/kg, and administration volume of 10 mL/kg), and ate 4 hours after administration.
About 0.2 mL of blood was collected via jugular vein before administration and 0.083 hour, 0.25 hour, 0.5 hour, 1 hour, 2 hours, 4 hours, 8 hours, 12 hours and 24 hours after administration, and heparin sodium was used for anticoagulation. The collected blood samples were placed on ice, and plasma was separated by centrifugation (centrifugation condition: 1500 g, 10 minutes). The collected plasma was stored at-40°C to -20°C before analysis.
LC-MS/MS was used to determine the contents of different compounds to be tested in mouse plasma after intravenous injection and intragastric administration.
The pharmacokinetic parameters of the compounds of the present invention and the positive control can be seen in Table 8. Table 8 Results of pharmacokinetic parameters

[2] = intravenous, 1 mg/kg, injection

T1 sequence (P08922 28-2347 G2032R): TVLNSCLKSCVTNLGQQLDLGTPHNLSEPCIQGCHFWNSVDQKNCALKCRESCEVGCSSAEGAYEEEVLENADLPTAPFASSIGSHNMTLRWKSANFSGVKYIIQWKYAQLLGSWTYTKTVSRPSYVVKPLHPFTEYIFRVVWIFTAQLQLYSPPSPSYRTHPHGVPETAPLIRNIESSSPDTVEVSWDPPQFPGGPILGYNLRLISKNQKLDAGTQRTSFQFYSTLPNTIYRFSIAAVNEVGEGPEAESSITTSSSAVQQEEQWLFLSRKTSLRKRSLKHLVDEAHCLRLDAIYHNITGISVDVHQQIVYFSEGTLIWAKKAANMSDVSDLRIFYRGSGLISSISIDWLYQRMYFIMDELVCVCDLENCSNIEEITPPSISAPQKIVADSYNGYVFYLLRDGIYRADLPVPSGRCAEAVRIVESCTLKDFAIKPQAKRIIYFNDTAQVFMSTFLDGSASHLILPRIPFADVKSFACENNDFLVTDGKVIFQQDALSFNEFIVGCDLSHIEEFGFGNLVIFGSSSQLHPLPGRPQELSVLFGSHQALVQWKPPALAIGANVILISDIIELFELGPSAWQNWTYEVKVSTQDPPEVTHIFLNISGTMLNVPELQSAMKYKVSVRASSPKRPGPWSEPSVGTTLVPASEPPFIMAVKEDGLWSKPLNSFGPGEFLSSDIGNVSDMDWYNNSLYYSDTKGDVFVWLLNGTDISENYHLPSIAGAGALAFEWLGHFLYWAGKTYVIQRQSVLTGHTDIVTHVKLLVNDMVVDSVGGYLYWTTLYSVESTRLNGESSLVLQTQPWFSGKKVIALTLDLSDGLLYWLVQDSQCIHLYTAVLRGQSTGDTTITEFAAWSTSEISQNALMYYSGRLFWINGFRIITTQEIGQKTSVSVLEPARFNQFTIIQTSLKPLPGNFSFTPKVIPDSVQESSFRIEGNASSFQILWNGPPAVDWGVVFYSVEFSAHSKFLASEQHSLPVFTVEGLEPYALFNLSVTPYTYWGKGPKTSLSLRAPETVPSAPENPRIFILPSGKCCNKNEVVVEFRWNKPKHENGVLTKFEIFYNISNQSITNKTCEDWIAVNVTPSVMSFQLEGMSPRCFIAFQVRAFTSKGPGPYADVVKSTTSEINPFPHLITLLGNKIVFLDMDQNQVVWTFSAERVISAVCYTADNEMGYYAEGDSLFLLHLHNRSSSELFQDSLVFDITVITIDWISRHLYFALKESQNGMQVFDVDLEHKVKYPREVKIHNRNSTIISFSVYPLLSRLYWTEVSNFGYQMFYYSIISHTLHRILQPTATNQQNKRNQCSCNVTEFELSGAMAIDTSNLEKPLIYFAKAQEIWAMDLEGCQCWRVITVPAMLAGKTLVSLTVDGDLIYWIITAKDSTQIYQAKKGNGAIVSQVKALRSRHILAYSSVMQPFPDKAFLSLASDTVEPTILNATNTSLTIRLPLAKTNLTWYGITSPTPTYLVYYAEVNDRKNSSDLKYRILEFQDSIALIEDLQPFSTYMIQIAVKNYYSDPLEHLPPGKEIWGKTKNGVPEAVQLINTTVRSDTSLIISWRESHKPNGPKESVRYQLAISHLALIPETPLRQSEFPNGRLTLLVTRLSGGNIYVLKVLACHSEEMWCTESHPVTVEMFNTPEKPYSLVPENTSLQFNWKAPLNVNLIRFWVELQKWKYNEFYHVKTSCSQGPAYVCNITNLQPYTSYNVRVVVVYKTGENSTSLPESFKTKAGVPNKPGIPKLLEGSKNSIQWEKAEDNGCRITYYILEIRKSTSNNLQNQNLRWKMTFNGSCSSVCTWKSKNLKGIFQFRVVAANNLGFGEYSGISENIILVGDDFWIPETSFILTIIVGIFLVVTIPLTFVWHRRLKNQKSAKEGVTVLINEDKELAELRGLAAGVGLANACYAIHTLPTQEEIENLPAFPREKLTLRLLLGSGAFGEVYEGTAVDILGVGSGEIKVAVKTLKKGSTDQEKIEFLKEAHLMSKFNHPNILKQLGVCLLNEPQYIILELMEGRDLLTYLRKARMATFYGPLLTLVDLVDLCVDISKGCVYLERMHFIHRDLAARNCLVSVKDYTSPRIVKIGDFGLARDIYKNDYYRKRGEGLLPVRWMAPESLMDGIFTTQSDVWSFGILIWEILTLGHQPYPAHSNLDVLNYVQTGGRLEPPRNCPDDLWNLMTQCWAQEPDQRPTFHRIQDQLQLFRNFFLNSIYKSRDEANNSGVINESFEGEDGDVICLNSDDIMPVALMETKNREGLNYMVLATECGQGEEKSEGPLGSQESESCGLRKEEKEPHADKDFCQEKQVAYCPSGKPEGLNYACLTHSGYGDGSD

IC50 (ROS1(G2032R)) [nM] | bioavailability [1] [%] | AUC(0-inf) ([1]; 5 mg/kg, oral intake) [ng·h/mL] | Cmax ([1]; 5 mg/kg, oral intake) [ng/mL] | half-life ([1]; 5 mg/kg, oral intake) [h] | AUC(0-inf) [1, 2] [ng·h/mL] | clearance [1, 2] [mL/min/kg] | half-life [1, 2] [h] | SMILES
2.11 | 47 | 4850 | 1050 | 3.15 | 2060 | 8.11 | 1.54 | C[C@H]1Nc2ccn3nc(N)c(c3n2)C(=O)NC[C@@]2(C)Cc3cc(F)cc1c3O2 [Example 25, (3R,11R)-16-amino-6-fluoro-3,11-dimethyl-10-oxa-2,13,17,18,21-pentaazapentacyclo[13.5.2.1^8,11.0^4,9. 0^18,22]tricosa-1(21),4,6,8,15(22),16,19-heptaen-14-one]
0.34 | 53 | 5620 | 2260 | 1.54 | 2100 | 7.9 | 1.47 | C[C@H]1Nc2ccn3ncc(c3n2)C(=O)NC[C@@]2(C)Cc3cc(F)cc1c3O2 [Example 8, (3R,11R)-6-fluoro-3,11-dimethyl-10-oxa-2,13,17,1 8,21-pentaazapentacyclo[13.5.2.1^8,11.0^4,9.0^18,22]tric osa-1(21),4,6,8,15(22),16,19-heptaen-14-one]
